The subject of series [1] is SARS-CoV-2. The series is classed as cell-based.
The nature of series [2]: in vitro. As to conditions: African green monkey.
The test system of series [3] is SARS-CoV-2. Nature of the series: Time-of-drug-addition assay in Vero E6 cells. The series is classed as cell-based.
Series [4] relates to SARS-CoV-2. The series is classed as cell-based. The source holds these as a separate data set.
In series [5] the test system is SARS-CoV-2. Put plainly: microbe, parasite or virus in culture. The series is classed as cell-based. As to conditions: for IC50: Severe acute respiratory syndrome coronavirus 2, Huh-7, 48 h.
A further series concerns Huh7 cells. As to conditions: CCK-8 assay. (In general: Formazan colour is commonly taken as a measure of viable cells.)
A short description of series [6]: in vitro. Conditions: human.
Series [7] concerns SARS-CoV-2. The class given is cell-based. As to conditions: Vero E6 cells, CC50/IC50.
For series [8] the following is noted: plasma; ref Cvetkovic and Goa (2003); cited from earlier work.
Series [9] can be described thus: In vivo plasma exposure in humans. On the set-up: species or system human.
In another series the test system is Vero E6 cells. As to conditions: read-out: CC50 (half cytotoxic concentration).

Like-named read-outs stand apart in the source and are kept apart here. Marks after values point to notes of the source that are not given here.

By IC50 is commonly meant the concentration that inhibits the measured activity by half.

On to `Cc1cccc(C)c1OCC(=O)N[C@@H](Cc1ccccc1)[C@@H](O)C[C@H](Cc1ccccc1)NC(=O)[C@H](C(C)C)N1CCCNC1=O` [Lopinavir, lopinavir], for which the “inhibitory effect by IFA” value with SARS-CoV-2 [1] is listed as “IFA confirmed the inhibitory effect”. For the same molecule, the values for the CC50 in the series “in vitro [2]” and with Huh7 cells were 80.8 µM and 64.4 µM, respectively. Besides, the “stage of infection at which the compound acts (time-of-drug-addition)” value (“stage of infection” below) in the series with SARS-CoV-2 [3] is recorded as “inhibited SARS-CoV-2 infection after virus entry, but not during virus entry”. Also, in the series on SARS-CoV-2 [4], the “NP expression by IFA” value is “decreased NP expression levels”. The molecule further gave a 50% inhibitory concentration (IC50) in the series with SARS-CoV-2 [5] of 7.79 µM.
Turning to `CCOC(=O)/C=C/[C@H](C[C@@H]1CCNC1=O)NC(=O)[C@@H](CC(=O)[C@@H](NC(=O)c1cc(C)on1)C(C)C)Cc1ccc(F)cc1` [Rupintrivir, rupintrivir], the CC50 in the series “in vitro [6]” and in “in vitro [2]” was more than 100 µM each time. For the same molecule, the “inhibitory effect by IFA” value in the series on SARS-CoV-2 [1] is given as “confirmed by IFA”. Besides, the “selectivity index (SI)” value is more than 2.93 in the series with SARS-CoV-2 [7] and more than 3.94 in the series with SARS-CoV-2 [5] (Huh7 cells, CC50/IC50). Also, the “stage of infection” value in the series with SARS-CoV-2 [3] is recorded as “inhibit SARS-CoV-2 at the stages post virus infection”. The “NP expression by IFA” value in the series with SARS-CoV-2 [4] is on record as “confirmed by IFA”. Moreover, in the series with SARS-CoV-2 [5], half-maximal inhibition (IC50) was put at 25.4 µM.
`CC(C)c1nc(CN(C)C(=O)N[C@H](C(=O)N[C@@H](Cc2ccccc2)C[C@H](O)[C@H](Cc2ccccc2)NC(=O)OCc2cncs2)C(C)C)cs1` [Ritonavir, ritonavir]: the “inhibitory effect by IFA” value with SARS-CoV-2 [1] is reported as “IFA confirmed the inhibitory effect”. The “In vivo concentration Cmin” value in series [8] is recorded as 0.038^e µmol/L. The “stage of infection” value in the series on SARS-CoV-2 [3] is given as “inhibited SARS-CoV-2 infection after virus entry, but not during virus entry”. The “In vivo concentration Unbound Cmin” value in [9] is given as 0.0006 µmol/L. The “NP expression by IFA” value with SARS-CoV-2 [4] is recorded as “decreased NP expression levels”. In the series with SARS-CoV-2 [5], this molecule registered an IC50 of 11.7 µM.
As for `C#CC[C@@H](C(=O)N[C@H](/C=C/C(=O)OCC)C[C@@H]1CCNC1=O)n1cccc(NC(=O)c2cc(C)on2)c1=O` [AG7404], the “inhibitory effect by IFA” value in the series with SARS-CoV-2 [1] is listed as “confirmed by IFA”. In addition, the “stage of infection” value in the series on SARS-CoV-2 [3] is listed as “inhibit SARS-CoV-2 at the stages post virus infection”. For the same molecule, the “NP expression by IFA” value in the series on SARS-CoV-2 [4] is listed as “confirmed by IFA”. For the same molecule, the IC50 with SARS-CoV-2 [5] stood at 92.5 µM. Further, the CC50 in the series on Huh7 cells and with Vero E6 cells was more than 400 µM in each case.
